Results as given in the supplement of paper PMC4862054.
Values joined by “and” are separate entries in the source; they are usually repeats but may differ in a detail not shown here. Equal entries are not always repeated.

Each molecule was assayed on BT-474 (assay: normalised viability (% of control), CellTiter-Blue; higher = more viable cells (about 100 = DMSO control)). Conditions: 10 nM; incubation time: 72 h.
Method: (§1)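 DSRT, CellTiter-Blue viability, 72 h incubation. Signal is normalised to DMSO and benzethonium chloride controls. Value is the normalised response at dose 3.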

Row | Structure (SMILES) | normalised viability
1 | C[C@]12O[C@H](C[C@]1(O)CO)n1c3ccccc3c3c4c(c5c6ccccc6n2c5c31)CNC4=O [Lestaurtinib] | 127%
2 | O=C1c2c(O)ccc(O)c2C(=O)c2c(NCCNCCO)ccc(NCCNCCO)c21 [Mitoxantrone] | 98.2%
3 | CCN(CC)CCNC(=O)c1c(C)[nH]c(/C=C2\C(=O)Nc3ccc(F)cc32)c1C [Sunitinib] | 102% and 99.1%
4 | CC[C@@]1(O)C(=O)OCc2c1cc1n(c2=O)Cc2cc3c(CN(C)C)c(O)ccc3nc2-1 [Topotecan] | 121%

Same assay, conditions: 25 nM; incubation time: 72 h

Row | Structure (SMILES) | normalised viability [%]
5 | c1cc(CN2CCCNCCNCCCNCC2)ccc1CN1CCCNCCNCCCNCC1 [Plerixafor] | 108

Same assay, conditions: 100 nM; incubation time: 72 h

Row | Structure (SMILES) | normalised viability
6 | Nc1cccc2c1CN(C1CCC(=O)NC1=O)C2=O (stereo not given) [Lenalidomide] | 115% and 94.3%
7 | Nc1ccccc1NC(=O)c1ccc(CNc2nccc(-c3cccnc3)n2)cc1 [Mocetinostat] | 95.1%
8 | Cc1ccc(Nc2nccc(N(C)c3ccc4c(C)n(C)nc4c3)n2)cc1S(N)(=O)=O [Pazopanib] | 99.7%
9 | O=C(CCBr)N1CCN(C(=O)CCBr)CC1 [Pipobroman] | 119%
10 | C[C@]12C=CC(=O)C=C1CC[C@@H]1[C@@H]2[C@@H](O)C[C@@]2(C)[C@H]1CC[C@]2(O)C(=O)CO [Prednisolone] | 102%

What follows are molecules tested on BT-549 in the same assay as above. Conditions: 10 nM; incubation time: 72 h.
Method: as §1

Row | Structure (SMILES) | normalised viability
11 | C[C@]12O[C@H](C[C@]1(O)CO)n1c3ccccc3c3c4c(c5c6ccccc6n2c5c31)CNC4=O [Lestaurtinib] | 106%
12 | O=C1c2c(O)ccc(O)c2C(=O)c2c(NCCNCCO)ccc(NCCNCCO)c21 [Mitoxantrone] | 87.7%
13 | CCN(CC)CCNC(=O)c1c(C)[nH]c(/C=C2\C(=O)Nc3ccc(F)cc32)c1C [Sunitinib] | 96.5% and 73.3%
14 | CC[C@@]1(O)C(=O)OCc2c1cc1n(c2=O)Cc2cc3c(CN(C)C)c(O)ccc3nc2-1 [Topotecan] | 107%

Same assay, conditions: 25 nM; incubation time: 72 h

Row | Structure (SMILES) | normalised viability [%]
15 | c1cc(CN2CCCNCCNCCCNCC2)ccc1CN1CCCNCCNCCCNCC1 [Plerixafor] | 117

Same assay, conditions: 100 nM; incubation time: 72 h

Row | Structure (SMILES) | normalised viability
16 | Nc1cccc2c1CN(C1CCC(=O)NC1=O)C2=O (stereo not given) [Lenalidomide] | 92.2% and 101%
17 | Nc1ccccc1NC(=O)c1ccc(CNc2nccc(-c3cccnc3)n2)cc1 [Mocetinostat] | 81.6%
18 | Cc1ccc(Nc2nccc(N(C)c3ccc4c(C)n(C)nc4c3)n2)cc1S(N)(=O)=O [Pazopanib] | 96.9%
19 | O=C(CCBr)N1CCN(C(=O)CCBr)CC1 [Pipobroman] | 86.4%
20 | C[C@]12C=CC(=O)C=C1CC[C@@H]1[C@@H]2[C@@H](O)C[C@@]2(C)[C@H]1CC[C@]2(O)C(=O)CO [Prednisolone] | 104%

These molecules were tested on CAL-120 in the same assay as above. Conditions: 10 nM; incubation time: 72 h.
Method: as §1

Row | Structure (SMILES) | normalised viability
21 | C[C@]12O[C@H](C[C@]1(O)CO)n1c3ccccc3c3c4c(c5c6ccccc6n2c5c31)CNC4=O [Lestaurtinib] | 103%
22 | O=C1c2c(O)ccc(O)c2C(=O)c2c(NCCNCCO)ccc(NCCNCCO)c21 [Mitoxantrone] | 67.4%
23 | CCN(CC)CCNC(=O)c1c(C)[nH]c(/C=C2\C(=O)Nc3ccc(F)cc32)c1C [Sunitinib] | 91.8% and 108%
24 | CC[C@@]1(O)C(=O)OCc2c1cc1n(c2=O)Cc2cc3c(CN(C)C)c(O)ccc3nc2-1 [Topotecan] | 76.4%

Same assay, conditions: 25 nM; incubation time: 72 h

Row | Structure (SMILES) | normalised viability [%]
25 | c1cc(CN2CCCNCCNCCCNCC2)ccc1CN1CCCNCCNCCCNCC1 [Plerixafor] | 80.1

Same assay, conditions: 100 nM; incubation time: 72 h

Row | Structure (SMILES) | normalised viability
26 | Nc1cccc2c1CN(C1CCC(=O)NC1=O)C2=O (stereo not given) [Lenalidomide] | 71.4% and 84.9%
27 | Nc1ccccc1NC(=O)c1ccc(CNc2nccc(-c3cccnc3)n2)cc1 [Mocetinostat] | 53.6%
28 | Cc1ccc(Nc2nccc(N(C)c3ccc4c(C)n(C)nc4c3)n2)cc1S(N)(=O)=O [Pazopanib] | 81.6%
29 | O=C(CCBr)N1CCN(C(=O)CCBr)CC1 [Pipobroman] | 96%
30 | C[C@]12C=CC(=O)C=C1CC[C@@H]1[C@@H]2[C@@H](O)C[C@@]2(C)[C@H]1CC[C@]2(O)C(=O)CO [Prednisolone] | 79.9%

What follows are molecules tested on CAL-148 in the same assay as above. Conditions: 1 nM; incubation time: 72 h.
Method: as §1

Row | Structure (SMILES) | normalised viability
31 | C[C@]12O[C@H](C[C@]1(O)CO)n1c3ccccc3c3c4c(c5c6ccccc6n2c5c31)CNC4=O [Lestaurtinib] | 101%
32 | O=C1c2c(O)ccc(O)c2C(=O)c2c(NCCNCCO)ccc(NCCNCCO)c21 [Mitoxantrone] | 94.3%
33 | CCN(CC)CCNC(=O)c1c(C)[nH]c(/C=C2\C(=O)Nc3ccc(F)cc32)c1C [Sunitinib] | 96.4% and 97.8%
34 | CC[C@@]1(O)C(=O)OCc2c1cc1n(c2=O)Cc2cc3c(CN(C)C)c(O)ccc3nc2-1 [Topotecan] | 96.4%

Same assay, conditions: 2.5 nM; incubation time: 72 h

Row | Structure (SMILES) | normalised viability [%]
35 | c1cc(CN2CCCNCCNCCCNCC2)ccc1CN1CCCNCCNCCCNCC1 [Plerixafor] | 92.3

Same assay, conditions: 10 nM; incubation time: 72 h

Row | Structure (SMILES) | normalised viability
36 | Nc1cccc2c1CN(C1CCC(=O)NC1=O)C2=O (stereo not given) [Lenalidomide] | 88% and 92.2%
37 | Nc1ccccc1NC(=O)c1ccc(CNc2nccc(-c3cccnc3)n2)cc1 [Mocetinostat] | 111%
38 | Cc1ccc(Nc2nccc(N(C)c3ccc4c(C)n(C)nc4c3)n2)cc1S(N)(=O)=O [Pazopanib] | 88.3%
39 | O=C(CCBr)N1CCN(C(=O)CCBr)CC1 [Pipobroman] | 100%
40 | C[C@]12C=CC(=O)C=C1CC[C@@H]1[C@@H]2[C@@H](O)C[C@@]2(C)[C@H]1CC[C@]2(O)C(=O)CO [Prednisolone] | 111%

Each molecule was assayed on CAL-51 in the same assay as above. Conditions: 1 nM; incubation time: 72 h.
Method: as §1

Row | Structure (SMILES) | normalised viability
41 | C[C@]12O[C@H](C[C@]1(O)CO)n1c3ccccc3c3c4c(c5c6ccccc6n2c5c31)CNC4=O [Lestaurtinib] | 115%
42 | O=C1c2c(O)ccc(O)c2C(=O)c2c(NCCNCCO)ccc(NCCNCCO)c21 [Mitoxantrone] | 104%
43 | CCN(CC)CCNC(=O)c1c(C)[nH]c(/C=C2\C(=O)Nc3ccc(F)cc32)c1C [Sunitinib] | 110% and 90.5%
44 | CC[C@@]1(O)C(=O)OCc2c1cc1n(c2=O)Cc2cc3c(CN(C)C)c(O)ccc3nc2-1 [Topotecan] | 96.5%

Same assay, conditions: 2.5 nM; incubation time: 72 h

Row | Structure (SMILES) | normalised viability [%]
45 | c1cc(CN2CCCNCCNCCCNCC2)ccc1CN1CCCNCCNCCCNCC1 [Plerixafor] | 100

Same assay, conditions: 10 nM; incubation time: 72 h

Row | Structure (SMILES) | normalised viability
46 | Nc1cccc2c1CN(C1CCC(=O)NC1=O)C2=O (stereo not given) [Lenalidomide] | 106% and 104%
47 | Nc1ccccc1NC(=O)c1ccc(CNc2nccc(-c3cccnc3)n2)cc1 [Mocetinostat] | 98.2%
48 | Cc1ccc(Nc2nccc(N(C)c3ccc4c(C)n(C)nc4c3)n2)cc1S(N)(=O)=O [Pazopanib] | 104%
49 | O=C(CCBr)N1CCN(C(=O)CCBr)CC1 [Pipobroman] | 110%
50 | C[C@]12C=CC(=O)C=C1CC[C@@H]1[C@@H]2[C@@H](O)C[C@@]2(C)[C@H]1CC[C@]2(O)C(=O)CO [Prednisolone] | 98.4%

What follows are molecules tested on CAL-85-1 in the same assay as above. Conditions: 1 nM; incubation time: 72 h.
Method: as §1

Row | Structure (SMILES) | normalised viability
51 | C[C@]12O[C@H](C[C@]1(O)CO)n1c3ccccc3c3c4c(c5c6ccccc6n2c5c31)CNC4=O [Lestaurtinib] | 99.7%
52 | O=C1c2c(O)ccc(O)c2C(=O)c2c(NCCNCCO)ccc(NCCNCCO)c21 [Mitoxantrone] | 95.1%
53 | CCN(CC)CCNC(=O)c1c(C)[nH]c(/C=C2\C(=O)Nc3ccc(F)cc32)c1C [Sunitinib] | 95.3% and 104%
54 | CC[C@@]1(O)C(=O)OCc2c1cc1n(c2=O)Cc2cc3c(CN(C)C)c(O)ccc3nc2-1 [Topotecan] | 91.2%

Same assay, conditions: 2.5 nM; incubation time: 72 h

Row | Structure (SMILES) | normalised viability [%]
55 | c1cc(CN2CCCNCCNCCCNCC2)ccc1CN1CCCNCCNCCCNCC1 [Plerixafor] | 96.9

Same assay, conditions: 10 nM; incubation time: 72 h

Row | Structure (SMILES) | normalised viability
56 | Nc1cccc2c1CN(C1CCC(=O)NC1=O)C2=O (stereo not given) [Lenalidomide] | 88.2% and 90.5%
57 | Nc1ccccc1NC(=O)c1ccc(CNc2nccc(-c3cccnc3)n2)cc1 [Mocetinostat] | 91.2%
58 | Cc1ccc(Nc2nccc(N(C)c3ccc4c(C)n(C)nc4c3)n2)cc1S(N)(=O)=O [Pazopanib] | 95.6%
59 | O=C(CCBr)N1CCN(C(=O)CCBr)CC1 [Pipobroman] | 110%
60 | C[C@]12C=CC(=O)C=C1CC[C@@H]1[C@@H]2[C@@H](O)C[C@@]2(C)[C@H]1CC[C@]2(O)C(=O)CO [Prednisolone] | 109%

The molecules below were run on DU-4475 in the same assay as above. Conditions: 1 nM; incubation time: 72 h.
Method: as §1

Row | Structure (SMILES) | normalised viability
61 | C[C@]12O[C@H](C[C@]1(O)CO)n1c3ccccc3c3c4c(c5c6ccccc6n2c5c31)CNC4=O [Lestaurtinib] | 109%
62 | O=C1c2c(O)ccc(O)c2C(=O)c2c(NCCNCCO)ccc(NCCNCCO)c21 [Mitoxantrone] | 102%
63 | CCN(CC)CCNC(=O)c1c(C)[nH]c(/C=C2\C(=O)Nc3ccc(F)cc32)c1C [Sunitinib] | 104% and 92%
64 | CC[C@@]1(O)C(=O)OCc2c1cc1n(c2=O)Cc2cc3c(CN(C)C)c(O)ccc3nc2-1 [Topotecan] | 92.6%

Same assay, conditions: 2.5 nM; incubation time: 72 h

Row | Structure (SMILES) | normalised viability [%]
65 | c1cc(CN2CCCNCCNCCCNCC2)ccc1CN1CCCNCCNCCCNCC1 [Plerixafor] | 93.1
